Test results reported in ChEMBL document CHEMBL1765054 (J Med Chem, 2011).

What was measured:
Format in all cases: ADME, organism-based
[1] = Cmax in C57BL/6 mouse at 10 mg/kg, po; design: dose 10 mg/kg, route oral; conditions: in vivo
[2] = Cmax in C57BL/6 mouse at 1 mg/kg, iv; design: dose 1 mg/kg, route intravenous; conditions: in vivo
[3] = Tmax in C57BL/6 mouse at 10 mg/kg, po; design: dose 10 mg/kg, route oral; conditions: in vivo
[4] = tested on: Mus musculus; experiment: Bioavailability in C57BL/6 mouse at 10 mg/kg; conditions: in vivo
[5] = AUC in C57BL/6 mouse at 10 mg/kg, po; design: dose 10 mg/kg, route oral; conditions: plasma
[6] = Volume of distribution at steady state in C57BL/6 mouse at 1 mg/kg, iv; design: dose 1 mg/kg, route intravenous; conditions: in vivo, read-out: Vdss

Cmax [1] [ng/mL]	Cmax [2] [ng/mL]	Tmax [3] [min]	F [4] [%]	AUC [5] [ng·h/mL]	Vd [6] [L/kg]	Compound
853	1040	30	21.6	2410	1.16	Cc1cc(-n2c(=O)ccc3cnc4ccc(-c5cn[nH]c5)cc4c32)ccc1F
430		30	19.2	755	2.42	O=c1ccc2cnc3ccc(-c4cn[nH]c4)cc3c2n1-c1ccc(F)c(C(F)(F)F)c1
3970	1540		51	4310		Nc1ccc(-c2ccc3ncc4ccc(=O)n(-c5cccc(C(F)(F)F)c5)c4c3c2)cn1
98	1640	60	4.2	352	1.3	O=c1ccc2cnc3ccc(-c4cnc5[nH]ccc5c4)cc3c2n1-c1ccc(F)c(C(F)(F)F)c1
1040		30	28	2070	1.08	Cc1cc(-n2c(=O)ccc3cnc4ccc(-c5cnn(C)c5)cc4c32)ccc1F
